{"source": "patent US20180353524A1", "about": "“CANCER TREATMENT USING 2-DEOXY-2-FLUORO-L-FUCOSE IN COMBINATION WITH A CHECKPOINT INHIBITOR” (SEATTLE GENETICS, INC., priority 2015, published 2018)", "key": {"A20 tumor vaccine model": {"system": "A20 tumor vaccine model", "experiment": "Serum cytokines in A20 vaccine model", "type": "in vivo", "details": "BALB/c mice, with KLH-Idiotype vaccine vs KLH-Idiotype alone, no depletion", "experimental": "KLH-A20 Id Fab was generated as described in Okeley et al PNAS 2012. A20 cells (ATCC) were cultured in RPMI 1640 with 10% FBS, 10 mM HEPES, 1 mM sodium pyruvate, 50 μM 2-mercaptoethanol and penicillin (100 U/ml)/streptomycin (100 μg/ml) (PS) Immunization groups (BALB/c, Harlan) were injected subcutaneously with the KLH-Fab conjugate (50 μg) with TiterMax adjuvant (1:1) on day-21 with a boost on day-7. 2-deoxy-2-fluoro-L-fucose treatment groups received drinking water containing 20 mM 2-deoxy-2-fluoro-L-fucose beginning on day -14. One week after the second vaccination (day 0), all mice received 2.5×10^6 A20 tumor cells (i.v.). 2-deoxy-2-fluoro-L-fucose treatment was continued until day 21 followed by normal drinking water. Depletion of immune cells was accomplished with depleting antibodies administered on days-6, -5, -4, 0 and +7 (200 μg/mouse i.p.). CD4 or CD8 T-cells depletion by anti-CD4 (GK1.5) or -CD8 (53-6.72) antibody was verified in blood at day-1, 7, 14, 21, 29 (FACS analysis). […] Thus CD4 and CD8 T-cells play a role in the combination activity.\nTissue culture supernatants from T-cell/DC co-cultures described previously were collected and assessed for cytokine changes by Luminex assay. Similarly, blood samples from an A20 vaccine model study were allowed to clot and serum was collected for analysis of cytokines (MCYTOMAG01L1X-13 Mouse Cytokine Magnetic Bead Panel, Millipore)."}, "A20 tumor cells": {"system": "A20 tumor cells", "experiment": "A20 mouse lymphoma study, survival", "type": "in vivo, BALB/c mice", "experimental": "A20 cells (ATCC) were cultured in RPMI 1640 with 10% FBS, 10 mM HEPES, 1 mM sodium pyruvate, 50 μM 2-mercaptoethanol and penicillin (100 U/ml)/streptomycin (100 μg/ml) (PS). All mice (BALB/c, n=6/group) were implanted with 1×10^5 A20 tumor cells (i.v.) and were divided into four groups: untreated; treated with 2FF only; treated with anti-PD1 antibody only; and treated with a combination of 2FF with anti-PD1 antibody. 2FF treatment groups received drinking water containing 20 mM 2FF beginning on the day of tumor implantand continued throughout the study. Mice not receiving 2FF were provided with normal drinking water. Anti-PD1 antibody (Ebiosciences, clone J43) treatment groups received three doses of 5 mg/kg every three days starting on day 5 post tumor implant. […] This is compared to only 17% survival in the untreated and the anti-PD1 alone treated groups after about 40 days of treatment lasting to the end of the experiment, and also compared to only 17% survival in 2FF alone treated group after 70 days of treatment also lasting to the end of the experiment at ˜90 days."}, "[1]": {"system": "regulatory T-cells (CD3+, CD4+, CD25+, FOXp3+)", "experiment": "Regulatory T-cells in blood of rats dosed by oral gavage for 42 days (flow cytometry)", "type": "in vivo, Sprague-Dawley rats", "details": "for Treg % Gated, percent change relative to pretest means: rat", "experimental": "Sprague-Dawley rats (CD®[Crl:CD®(SD)] were administered 2-deoxy-2-fluoro-L-fucose by oral gavage daily for 42 consecutive days at doses of 0, 125, 500 or 2000 mg/kg/day. Blood samples (0.4 mL/timepoint) were collected in sodium heparin at pretest and days 2, 7, 22, 43, 49, 56, and 71 of the study. Samples were processed within 24 hours of collection. Aliquots of the specimens were stained with predetermined volumes of previously tested and titered monoclonal antibodies specific for each marker. The red cells in each tube were lysed and after staining the cells were fixed with Versalyse Lysis Buffer solution (Beckman Coulter). The prepared specimens were analyzed on a Beckman-Coulter FC 500 MPL flow cytometer."}, "SMAD2": {"system": "SMAD2", "experiment": "TGFβ signaling, pSMAD2 western blot in T-cells", "type": "cell-based, human", "details": "TGFβ 5 ng/mL for 10 min after 6 h serum starvation", "experimental": "Cells were plated in 6-well dishes (2.5×10^6 cells/well) with serum-free RPMI medium (1% PS, 2.5 mL) and after 6 h of serum starvation, cells were stimulated with TGFβ (5 ng/mL) for 10 min. The cells were harvested, washed twice in PBS, and snap frozen on dry ice followed by storage at −80 ° C. Cells were lysed with RIPA buffer (containing DNAse and protease/phosphatase inhibitors). As described previously, cell lysates were run on SDS-PAGE and examined by western blot on nitrocellulose membranes with anti-pSMAD2 and anti-actin antibodies."}}, "data": [{"smiles": "C[C@@H]1OC(O)[C@@H](F)[C@H](O)[C@@H]1O", "note": "(stereo partly drawn) [2-deoxy-2-fluoro-L-fucose]", "values": [{"measurement": "serum cytokines important for immune responses (IL15) in A20 tumor vaccine model", "setting": "A20 tumor vaccine model", "result": "specific increases in cytokines"}, {"measurement": "survival compared to the untreated group", "setting": "A20 tumor cells; BALB/c mice, i.v. A20 cells, 20 mM 2FF in drinking water, anti-PD1 5 mg/kg q3dx3 from day 5", "result": "increased survival compared to the untreated group"}, {"measurement": "survival of the mice", "setting": "A20 tumor cells; after 70 days of treatment lasting to end of experiment at ~90 days, 20 mM 2FF drinking water", "result": 17, "unit": "%"}, {"measurement": "Treg % Gated, percent change relative to pretest means", "setting": "[1]; F, 125 mg/kg/day oral gavage, Day 2", "result": "−54", "unit": "%"}, {"measurement": "Treg % Gated, percent change relative to pretest means", "setting": "[1]; F, 125 mg/kg/day oral gavage, Day 7", "result": "−67", "unit": "%"}, {"measurement": "Treg % Gated, percent change relative to pretest means", "setting": "[1]; F, 125 mg/kg/day oral gavage, Day 22", "result": "−61", "unit": "%"}, {"measurement": "Treg % Gated, percent change relative to pretest means", "setting": "[1]; F, 125 mg/kg/day oral gavage, Day 43", "result": "−64", "unit": "%"}, {"measurement": "Treg % Gated, percent change relative to pretest means", "setting": "[1]; F, 125 mg/kg/day oral gavage, Day 49, recovery period", "result": "−40", "unit": "%"}, {"measurement": "Treg % Gated, percent change relative to pretest means", "setting": "[1]; F, 125 mg/kg/day oral gavage, Day 56, recovery period", "result": "−51", "unit": "%"}, {"measurement": "Treg % Gated, percent change relative to pretest means", "setting": "[1]; F, 125 mg/kg/day oral gavage, Day 71, recovery period", "result": "−45", "unit": "%"}, {"measurement": "Treg % Gated, percent change relative to pretest means", "setting": "[1]; F, 500 mg/kg/day oral gavage, Day 2", "result": "−56", "unit": "%"}, {"measurement": "Treg % Gated, percent change relative to pretest means", "setting": "[1]; F, 500 mg/kg/day oral gavage, Day 7", "result": "−60", "unit": "%"}, {"measurement": "Treg % Gated, percent change relative to pretest means", "setting": "[1]; F, 500 mg/kg/day oral gavage, Day 22", "result": "−60", "unit": "%"}, {"measurement": "Treg % Gated, percent change relative to pretest means", "setting": "[1]; F, 500 mg/kg/day oral gavage, Day 43", "result": "−50", "unit": "%"}, {"measurement": "Treg % Gated, percent change relative to pretest means", "setting": "[1]; F, 500 mg/kg/day oral gavage, Day 49, recovery period", "result": "−43", "unit": "%"}, {"measurement": "Treg % Gated, percent change relative to pretest means", "setting": "[1]; F, 500 mg/kg/day oral gavage, Day 56, recovery period", "result": "−38", "unit": "%"}, {"measurement": "Treg % Gated, percent change relative to pretest means", "setting": "[1]; F, 500 mg/kg/day oral gavage, Day 71, recovery period", "result": "−40", "unit": "%"}, {"measurement": "Treg % Gated, percent change relative to pretest means", "setting": "[1]; F, 2000 mg/kg/day oral gavage, Day 2", "result": "−41", "unit": "%"}, {"measurement": "Treg % Gated, percent change relative to pretest means", "setting": "[1]; F, 2000 mg/kg/day oral gavage, Day 7", "result": "−39", "unit": "%"}, {"measurement": "Treg % Gated, percent change relative to pretest means", "setting": "[1]; F, 2000 mg/kg/day oral gavage, Day 22", "result": "−43", "unit": "%"}, {"measurement": "Treg % Gated, percent change relative to pretest means", "setting": "[1]; F, 2000 mg/kg/day oral gavage, Day 43", "result": "−28", "unit": "%"}, {"measurement": "Treg % Gated, percent change relative to pretest means", "setting": "[1]; F, 2000 mg/kg/day oral gavage, Day 49, recovery period", "result": "−19", "unit": "%"}, {"measurement": "Treg % Gated, percent change relative to pretest means", "setting": "[1]; F, 2000 mg/kg/day oral gavage, Day 56, recovery period", "result": "−16", "unit": "%"}, {"measurement": "Treg % Gated, percent change relative to pretest means", "setting": "[1]; F, 2000 mg/kg/day oral gavage, Day 71, recovery period", "result": "−26", "unit": "%"}, {"measurement": "Treg % Gated, percent change relative to pretest means", "setting": "[1]; M, 125 mg/kg/day oral gavage, Day 2", "result": "−44", "unit": "%"}, {"measurement": "Treg % Gated, percent change relative to pretest means", "setting": "[1]; M, 125 mg/kg/day oral gavage, Day 7", "result": "−64", "unit": "%"}, {"measurement": "Treg % Gated, percent change relative to pretest means", "setting": "[1]; M, 125 mg/kg/day oral gavage, Day 22", "result": "−65", "unit": "%"}, {"measurement": "Treg % Gated, percent change relative to pretest means", "setting": "[1]; M, 125 mg/kg/day oral gavage, Day 43", "result": "−59", "unit": "%"}, {"measurement": "Treg % Gated, percent change relative to pretest means", "setting": "[1]; M, 125 mg/kg/day oral gavage, Day 49, recovery period", "result": "−46", "unit": "%"}, {"measurement": "Treg % Gated, percent change relative to pretest means", "setting": "[1]; M, 125 mg/kg/day oral gavage, Day 56, recovery period", "result": "−47", "unit": "%"}, {"measurement": "Treg % Gated, percent change relative to pretest means", "setting": "[1]; M, 125 mg/kg/day oral gavage, Day 71, recovery period", "result": "−42", "unit": "%"}, {"measurement": "Treg % Gated, percent change relative to pretest means", "setting": "[1]; M, 500 mg/kg/day oral gavage, Day 2", "result": "−61", "unit": "%"}, {"measurement": "Treg % Gated, percent change relative to pretest means", "setting": "[1]; M, 500 mg/kg/day oral gavage, Day 7", "result": "−63", "unit": "%"}, {"measurement": "Treg % Gated, percent change relative to pretest means", "setting": "[1]; M, 500 mg/kg/day oral gavage, Day 22", "result": "−64", "unit": "%"}, {"measurement": "Treg % Gated, percent change relative to pretest means", "setting": "[1]; M, 500 mg/kg/day oral gavage, Day 43", "result": "−58", "unit": "%"}, {"measurement": "Treg % Gated, percent change relative to pretest means", "setting": "[1]; M, 500 mg/kg/day oral gavage, Day 49, recovery period", "result": "−48", "unit": "%"}, {"measurement": "Treg % Gated, percent change relative to pretest means", "setting": "[1]; M, 500 mg/kg/day oral gavage, Day 56, recovery period", "result": "−47", "unit": "%"}, {"measurement": "Treg % Gated, percent change relative to pretest means", "setting": "[1]; M, 500 mg/kg/day oral gavage, Day 71, recovery period", "result": "−48", "unit": "%"}, {"measurement": "Treg % Gated, percent change relative to pretest means", "setting": "[1]; M, 2000 mg/kg/day oral gavage, Day 2", "result": "−42", "unit": "%"}, {"measurement": "Treg % Gated, percent change relative to pretest means", "setting": "[1]; M, 2000 mg/kg/day oral gavage, Day 7", "result": "−43", "unit": "%"}, {"measurement": "Treg % Gated, percent change relative to pretest means", "setting": "[1]; M, 2000 mg/kg/day oral gavage, Day 22", "result": "−51", "unit": "%"}, {"measurement": "Treg % Gated, percent change relative to pretest means", "setting": "[1]; M, 2000 mg/kg/day oral gavage, Day 43", "result": "−29", "unit": "%"}, {"measurement": "Treg % Gated, percent change relative to pretest means", "setting": "[1]; M, 2000 mg/kg/day oral gavage, Day 49, recovery period", "result": "−6", "unit": "%"}, {"measurement": "Treg % Gated, percent change relative to pretest means", "setting": "[1]; M, 2000 mg/kg/day oral gavage, Day 56, recovery period", "result": "−12", "unit": "%"}, {"measurement": "Treg % Gated, percent change relative to pretest means", "setting": "[1]; M, 2000 mg/kg/day oral gavage, Day 71, recovery period", "result": "−13", "unit": "%"}, {"measurement": "relative proportion of regulatory T-cells (CD3+, CD4+, CD25+, FOXp3+) relative to pretest values", "setting": "[1]; rats, all dosed groups (125, 500, 2000 mg/kg/day), beginning at Day 2", "result": "tended to decrease"}, {"measurement": "SMAD2 phosphorylation following TGFβ stimulation vs control T-cells", "setting": "SMAD2", "result": "reduced SMAD2 phosphorylation"}]}]}
